From patent US20050245399A1, “Pyrazole derivatives as herbicidal compositions containing them” (ISHIHARA SANGYO KAISHA, LTD., priority 2004, published 2005)

Experiments:
Format in all cases: in vivo
[1] = test system: green foxtail (Setaria viridis L.): SETVI; experiment: Test Example 1 pre-emergence herbicidal activity, SETVI; conditions: visually observed 20th to 23rd day after application
In short: (§1)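 Seeds go into pots of upland field soil; one day on, the diluted formulation (500 L/ha water) is sprayed pre-emergence. Effects are scored visually 20 to 23 days post-application as 0–100% growth control.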

[2] = test system: velvetleaf (Abutilon theophrasti), ABUTH; experiment: Test Example 2 post-emergence (foliage treatment) herbicidal activity, ABUTH; conditions: 63 g a.i./ha
In short: (§2)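 Foliar spray of formulated compound (500 L/ha dilution water, 0.1% v/v spreader) onto young potted plants at defined leaf stages. Scored 0-100% by visual inspection 20-23 d post-spray.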

[3] = test system: green foxtail (Setaria viridis L.), SETVI; experiment: Test Example 2 post-emergence (foliage treatment) herbicidal activity, SETVI; conditions: 63 g a.i./ha
In short: as §2

[4] = test system: soybean (Glycine max Merr.), GLXMA; experiment: Test Example 2 post-emergence (foliage treatment) herbicidal activity, GLXMA; conditions: 63 g a.i./ha
In short: as §2

[5] = test system: japanese bulrush (Scirpus juncoides: SCPJO); experiment: Test Example 3 water application herbicidal activity (paddy), SCPJO; conditions: 63 g a.i./ha, water application under submerged condition at 0.5 leaf stage, visually observed 14th day after application; 0 = untreated control, 100 = complete kill
Source text: (§3) Paddy field soil was put into a 1/1,000,000 ha pot and seeds of barnyardgrass (Echinochiloa oryzicola: ECHOR) and japanese bulrush (Scirpus juncoides: SCPJO) were sown and slightly covered with soil. Then the pot was left to stand still in a greenhouse in a state where the depth of flooding water was from 0.5 to 1 cm, and one day later, tubers of japanese ribbon wapato (Sagittaria pygmaea: SA GPY) were planted. Thereafter, the depth of flooding water was maintained at a level of from 3 to 4 cm, and when barnyardgrass and japanese bulrush reached a 0.5 leaf stage, an aqueous diluted solution of a wettable powder or emulsifiable concentrate having the compound of the present invention formulated in accordance with a usual formulation method, was uniformly applied under submerged condition by a pipette so that the dose of the active ingredient would be at a predetermined level. On the other hand, paddy filed soil was put into a 1/1,000,000 ha pot and puddled and leveled, and the depth of flooding water was from 3 to 4 cm. One day later, rice (Oryza sativa L.: ORYSA) of 2 leaf stage was transplanted in a depth of 3 cm. On the 4th day after the transplantation, the compound of the present invention was applied in the same manner as described above. On the 14th day after the application of the herbicide, the growth of barnyardgrass, japanese burlush and japanese ribbon wapato was visually observed and on the 21st day after the application of the herbicide, the growth of rice was visually observed, and the herbicidal effects were evaluated by growth controlling degrees (%) ranging from 0 (equivalent to the untreated control) to 100 (complete kill), whereby the results shown in Table 6, were obtained. Compound Nos. in Table 6 correspond to Compound Nos. in Table 1 and 2 given hereinbefore.

[6] = test system: barnyardgrass (Echinochloa crus-galli L.), ECHCG; experiment: Test Example 2 post-emergence (foliage treatment) herbicidal activity, ECHCG; conditions: 63 g a.i./ha
In short: (§4)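 Sow in upland soil; grow to leaf stage (barnyardgrass 1.1-2.1, crabgrass 1.0-2.0, pigweed 0.1-1.5, rice 1.0-2); spray foliage at a fixed active ingredient rate in 500 L/ha water with 0.1% (v/v) spreader; rate growth control visually at 20-23 days on a 0-100% scale.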

[7] = test system: rice (Oryza sativa L.), ORYSA; experiment: Test Example 2 post-emergence (foliage treatment) herbicidal activity, ORYSA; conditions: 63 g a.i./ha
In short: as §4

[8] = test system: redroot pigweed (Amaranthus retroflexus L.): AMARE; experiment: Test Example 1 pre-emergence herbicidal activity, AMARE; conditions: visually observed 20th to 23rd day after application
In short: as §1

[9] = test system: wheat (Triticum aestivum L.): TRZAX; experiment: Test Example 1 pre-emergence herbicidal activity, TRZAX; conditions: visually observed 20th to 23rd day after application
In short: as §1

[10] = test system: barnyardgrass (Echinochiloa oryzicola: ECHOR); experiment: Test Example 3 water application herbicidal activity (paddy), ECHOR; conditions: 63 g a.i./ha, water application under submerged condition at 0.5 leaf stage, visually observed 14th day after application; 0 = untreated control, 100 = complete kill
Source text: as §3

[11] = test system: crabgrass (Digitaria sanguinalis L.), DIGSA; experiment: Test Example 2 post-emergence (foliage treatment) herbicidal activity, DIGSA; conditions: 63 g a.i./ha
In short: as §4

[12] = test system: barnyardgrass (Echinochloa crus-galli L.): ECHCG; experiment: Test Example 1 pre-emergence herbicidal activity, ECHCG; conditions: visually observed 20th to 23rd day after application
In short: as §1

[13] = test system: rice (Oryza sativa L.): ORYSA; experiment: Test Example 1 pre-emergence herbicidal activity, ORYSA; conditions: visually observed 20th to 23rd day after application
In short: as §1

[14] = test system: corn (Zea mays L.): ZEAMX; experiment: Test Example 1 pre-emergence herbicidal activity, ZEAMX; conditions: visually observed 20th to 23rd day after application
In short: as §1

[15] = test system: rice (Oryza sativa L.: ORYSA); experiment: Test Example 3 water application herbicidal activity (paddy), transplanted rice ORYSA; conditions: 63 g a.i./ha, water application 4th day after transplantation of 2 leaf stage rice, visually observed 21st day after application; 0 = untreated control, 100 = complete kill
Source text: as §3

[16] = test system: velvetleaf (Abutilon theophrasti): ABUTH; experiment: Test Example 1 pre-emergence herbicidal activity, ABUTH; conditions: visually observed 20th to 23rd day after application
In short: as §1

[17] = test system: crabgrass (Digitaria sanguinalis L.): DIGSA; experiment: Test Example 1 pre-emergence herbicidal activity, DIGSA; conditions: visually observed 20th to 23rd day after application
In short: as §1

[18] = test system: redroot pigweed (Amaranthus retroflexus L.), AMARE; experiment: Test Example 2 post-emergence (foliage treatment) herbicidal activity, AMARE; conditions: 63 g a.i./ha
In short: as §4

[19] = test system: prickly sida (Sida spinosa L.): SEDSP; experiment: Test Example 1 pre-emergence herbicidal activity, SIDSP; conditions: visually observed 20th to 23rd day after application
In short: as §1

[20] = test system: prickly sida (Sida spinosa L.), SIDSP; experiment: Test Example 2 post-emergence (foliage treatment) herbicidal activity, SIDSP; conditions: 63 g a.i./ha
In short: as §2

[21] = test system: soybean (Glycine max Merr.): GLXMA; experiment: Test Example 1 pre-emergence herbicidal activity, GLXMA; conditions: visually observed 20th to 23rd day after application
In short: as §1

[22] = test system: corn (Zea mays L.), ZEAMX; experiment: Test Example 2 post-emergence (foliage treatment) herbicidal activity, ZEAMX; conditions: 63 g a.i./ha
In short: as §2

[23] = test system: wheat (Triticum aestivum L.), TRZAX; experiment: Test Example 2 post-emergence (foliage treatment) herbicidal activity, TRZAX; conditions: 63 g a.i./ha
In short: as §2

[24] = test system: japanese ribbon wapato (Sagittaria pygmaea: SA GPY); experiment: Test Example 3 water application herbicidal activity (paddy), SAGPY; conditions: 63 g a.i./ha, water application under submerged condition, tubers planted, visually observed 14th day after application; 0 = untreated control, 100 = complete kill
Source text: as §3

COc1c(Cl)cc(F)c(-c2nn(C)c(OC(F)F)c2Cl)c1NC(=O)OCC(C)C [Compound 1-64]
Pre-emergence Herbicidal Activity SETVI (growth controlling degree) ([1]; Rate 63 g a.i./ha): 80%
growth controlling degree, ABUTH [2]: 100%
growth controlling degree, SETVI [3]: 100%
growth controlling degree, GLXMA [4]: 50%
growth controlling degrees (%) SCPJO [5]: 70%
growth controlling degree, ECHCO [6]: 90%
growth controlling degree, ORYSA [7]: 30%
Pre-emergence Herbicidal Activity AMARE (growth controlling degree) ([8]; Rate 63 g a.i./ha): 100%
Pre-emergence Herbicidal Activity TRZAX (growth controlling degree) ([9]; Rate 63 g a.i./ha): 10%
growth controlling degrees (%) ECHOR [10]: 100%
growth controlling degree, DIGSP [11]: 70%
Pre-emergence Herbicidal Activity ECHCG (growth controlling degree) ([12]; Rate 63 g a.i./ha): 40%
Pre-emergence Herbicidal Activity ORYSA (growth controlling degree) ([13]; Rate 63 g a.i./ha): 10%
Pre-emergence Herbicidal Activity ZEAMX (growth controlling degree) ([14]; Rate 63 g a.i./ha): 0%
growth controlling degrees (%) ORYSA [15]: 40%
Pre-emergence Herbicidal Activity ABUTH (growth controlling degree) ([16]; Rate 63 g a.i./ha): 60%
Pre-emergence Herbicidal Activity DIGSP (growth controlling degree) ([17]; Rate 63 g a.i./ha): 90%
growth controlling degree, AMARE [18]: 100%
Pre-emergence Herbicidal Activity SIDSP (growth controlling degree) ([19]; Rate 63 g a.i./ha): 80%
growth controlling degree, SIDSP [20]: 100%
Pre-emergence Herbicidal Activity GLXMA (growth controlling degree) ([21]; Rate 63 g a.i./ha): 0%
growth controlling degree, ZEAMX [22]: 30%
growth controlling degree, TRZAX [23]: 30%

COc1c(Cl)cc(F)c(-c2nn(C)c(OC(F)F)c2Cl)c1NC(=O)OCc1cccnc1 [Compound 1-70]
Pre-emergence Herbicidal Activity SETVI (growth controlling degree) ([1]; Rate 63 g a.i./ha): 70%
growth controlling degree, ABUTH [2]: 100%
growth controlling degree, GLXMA [4]: 80%
growth controlling degrees (%) SCPJO [5]: 80%
growth controlling degree, ECHCO [6]: 80%
growth controlling degree, ORYSA [7]: 95%
Pre-emergence Herbicidal Activity AMARE (growth controlling degree) ([8]; Rate 63 g a.i./ha): 100%
Pre-emergence Herbicidal Activity TRZAX (growth controlling degree) ([9]; Rate 63 g a.i./ha): 0%
growth controlling degrees (%) ECHOR [10]: 100%
growth controlling degrees (%) SAGPY [24]: 100%
growth controlling degree, DIGSP [11]: 60%
Pre-emergence Herbicidal Activity ECHCG (growth controlling degree) ([12]; Rate 63 g a.i./ha): 90%
Pre-emergence Herbicidal Activity ORYSA (growth controlling degree) ([13]; Rate 63 g a.i./ha): 40%
Pre-emergence Herbicidal Activity ZEAMX (growth controlling degree) ([14]; Rate 63 g a.i./ha): 0%
Pre-emergence Herbicidal Activity ABUTH (growth controlling degree) ([16]; Rate 63 g a.i./ha): 100%
Pre-emergence Herbicidal Activity DIGSP (growth controlling degree) ([17]; Rate 63 g a.i./ha): 80%
growth controlling degree, AMARE [18]: 100%
Pre-emergence Herbicidal Activity SIDSP (growth controlling degree) ([19]; Rate 63 g a.i./ha): 100%
growth controlling degree, SIDSP [20]: 100%
Pre-emergence Herbicidal Activity GLXMA (growth controlling degree) ([21]; Rate 63 g a.i./ha): 0%
growth controlling degree, ZEAMX [22]: 80%
growth controlling degree, TRZAX [23]: 30%

CCCOC(=O)Nc1c(OC)c(Cl)cc(F)c1-c1nn(C)c(OC(F)F)c1Cl [Compound 1-72]
Pre-emergence Herbicidal Activity SETVI (growth controlling degree) ([1]; Rate 63 g a.i./ha): 100%
growth controlling degree, ABUTH [2]: 100%
growth controlling degree, GLXMA [4]: 70%
growth controlling degrees (%) SCPJO [5]: 60%
growth controlling degree, ECHCO [6]: 80%
growth controlling degree, ORYSA [7]: 60%
Pre-emergence Herbicidal Activity AMARE (growth controlling degree) ([8]; Rate 63 g a.i./ha): 100%
Pre-emergence Herbicidal Activity TRZAX (growth controlling degree) ([9]; Rate 63 g a.i./ha): 40%
growth controlling degrees (%) ECHOR [10]: 100%
growth controlling degrees (%) SAGPY [24]: 100%
growth controlling degree, DIGSP [11]: 80%
Pre-emergence Herbicidal Activity ECHCG (growth controlling degree) ([12]; Rate 63 g a.i./ha): 98%
Pre-emergence Herbicidal Activity ORYSA (growth controlling degree) ([13]; Rate 63 g a.i./ha): 40%
Pre-emergence Herbicidal Activity ZEAMX (growth controlling degree) ([14]; Rate 63 g a.i./ha): 10%
Pre-emergence Herbicidal Activity ABUTH (growth controlling degree) ([16]; Rate 63 g a.i./ha): 100%
Pre-emergence Herbicidal Activity DIGSP (growth controlling degree) ([17]; Rate 63 g a.i./ha): 100%
growth controlling degree, AMARE [18]: 100%
Pre-emergence Herbicidal Activity SIDSP (growth controlling degree) ([19]; Rate 63 g a.i./ha): 100%
growth controlling degree, SIDSP [20]: 100%
Pre-emergence Herbicidal Activity GLXMA (growth controlling degree) ([21]; Rate 63 g a.i./ha): 0%
growth controlling degree, ZEAMX [22]: 40%
growth controlling degree, TRZAX [23]: 20%

Cn1nc(-c2c(F)cc(Cl)c(OC(F)F)c2N(C=O)Cc2ccccc2)c(Cl)c1OC(F)F [Compound 1-86]
Pre-emergence Herbicidal Activity SETVI (growth controlling degree) ([1]; Rate 125 g a.i./ha): 0%
growth controlling degree, ABUTH [2]: 0%
growth controlling degree, SETVI [3]: 10%
growth controlling degree, GLXMA [4]: 40%
growth controlling degrees (%) SCPJO [5]: 50%
growth controlling degree, ECHCO [6]: 0%
growth controlling degree, ORYSA [7]: 0%
Pre-emergence Herbicidal Activity AMARE (growth controlling degree) ([8]; Rate 125 g a.i./ha): 30%
Pre-emergence Herbicidal Activity TRZAX (growth controlling degree) ([9]; Rate 125 g a.i./ha): 0%
growth controlling degrees (%) ECHOR [10]: 60%
growth controlling degree, DIGSP [11]: 30%
Pre-emergence Herbicidal Activity ECHCG (growth controlling degree) ([12]; Rate 125 g a.i./ha): 0%
Pre-emergence Herbicidal Activity ORYSA (growth controlling degree) ([13]; Rate 125 g a.i./ha): 0%
Pre-emergence Herbicidal Activity ZEAMX (growth controlling degree) ([14]; Rate 125 g a.i./ha): 0%
growth controlling degrees (%) ORYSA [15]: 10%
Pre-emergence Herbicidal Activity ABUTH (growth controlling degree) ([16]; Rate 125 g a.i./ha): 0%
Pre-emergence Herbicidal Activity DIGSP (growth controlling degree) ([17]; Rate 125 g a.i./ha): 0%
growth controlling degree, AMARE [18]: 100%
Pre-emergence Herbicidal Activity SIDSP (growth controlling degree) ([19]; Rate 125 g a.i./ha): 0%
growth controlling degree, SIDSP [20]: 60%
Pre-emergence Herbicidal Activity GLXMA (growth controlling degree) ([21]; Rate 125 g a.i./ha): 0%
growth controlling degree, ZEAMX [22]: 0%
growth controlling degree, TRZAX [23]: 0%
